The subject of series [1] is Rattus norvegicus. Particulars: oral.
For series [2], the system named is Rattus norvegicus. The following applies: oral. The source holds these as a separate data set.
Series [3] concerns Rattus norvegicus. Particulars: oral. This is another data set of the same source.
In the next series the test system is Canidae. Particulars: chronic, oral, diet, Dog Other.
The subject of series [4] is Rattus norvegicus. The following applies: Hershberger, oral, gavage.
Where [5] appears, read: duration: 2 years, M/F, abnormal pigments in blood.
The mark [6] stands for this setting: subchronic, M/F, hypoactivity and ataxia.
[7] abbreviates: subchronic, M, liver/body weight ratio and hepatic microsomal enzyme induction.
Setting [8] is: duration: 1 years, M/F, Blood loss into the gastrointestinal tract + coagulation defect in male and female dogs.
Where [9] appears, read: duration: 1 years, F, anemia (males).
Where [10] appears, read: duration: 1 years, M, anemia (males).
[11] abbreviates: subchronic, duration: 90 days, M/F, reduced body weight and neurotoxicity.
Setting [12] is: duration: 1 years, M/F, gastric mucosal irritation.
Setting [13] is: duration: 6 months, M/F, increased serum alkaline phosphatase levels and increased liver-to-brain weight ratio.
The mark [14] stands for this setting: subchronic, M/F, reduced rbc and plasma cholinesterase activity.
[15] abbreviates: duration: 2 years, M/F, testicular degeneration.
Setting [16] is: duration: 1 years, M/F, increased wbc, decreased rbc (females), increased alkaline phosphatase (males).
Setting [17] is: duration: 6 months, M/F, hematological effects.

In the series with Rattus norvegicus [1] (chronic, duration: 28 months, diet, Kidney: Altered function), `O=c1ccc(=O)[nH][nH]1` [Maleic hydrazide] registered an LOAEL of 500 mg/kg-day. The same molecule yielded an LEL with Rattus norvegicus [2] (chronic, duration: 2 years, diet, M/F, renal dysfunction) of 500 mg/kg-day.

Regarding `N#Cc1cc(Br)c(O)c(Br)c1` [Bromoxynil], the NOEL in the series on Rattus norvegicus [1] (chronic, duration: 2 years, diet, None Observed) is 5 mg/kg-day; in the series with Rattus norvegicus [2] (chronic, duration: 2 years, diet, M/F, no effects), 5 mg/kg-day.

Consider `NCl` [Chloramine], for which the NOAEL in the series on Rattus norvegicus [1] (chronic, duration: 2 years, drinking water, Kidney: Weight changes + Liver: Weight changes + Whole body: Weight changes) stood at 9.5 mg/kg-day; with Rattus norvegicus [2] (chronic, M/F, no effects) it was 9.5 mg/kg-day.

With `CN(C)C(=O)Nc1ccc(Cl)c(Cl)c1` [Diuron], the NOEL in the series with Rattus norvegicus [3] (subchronic, gavage, M, Sprague-Dawley, Body Weight Changes: decrease + Hematology: RBC decrease, Hgb decrease, Hct decrease, MCHC decrease, MCV increase, Ret increase + Blood …) was 20 mg/kg-day. Besides, in the series with Canidae (setting [5]), the LEL turned out to be 3.12 mg/kg-day and the NOEL amounted to 0.625 mg/kg-day.

For `N#CC#N` [Cyanogen], the NOAEL in the series with Rattus norvegicus [1] (chronic, duration: 2 years, diet, Nerve: Myelin degeneration + Thyroid: Effects + Whole body: Decreased weight) was 21.6 mg/kg-day.

For `S=C1NCCN1` [4,5-Dihydro-2-mercaptoimidazole], the NOEL in the series with Rattus norvegicus [3] (subchronic, duration: 13 weeks, diet, M/F, Fischer 344, Body Weight Changes: decrease + Food Consumption: decrease + Histopathology: Thyroid-Diffuse follicular cell hyperplasia Thyroid-Focal …) was under 5.76 mg/kg-day. For the same molecule, the LOAEL stood at 0.25 mg/kg-day in the series on Rattus norvegicus [1] (chronic, duration: 24 months, diet, Thyroid: Hyperplasia) and 0.25 mg/kg-day in the series with Rattus norvegicus [2] (chronic, duration: 24 months, diet, M/F, increased incidence of thyroid hyperplasia).

Regarding `CC(C)CO` [2-Methyl-1-propanol], the NOAEL in the series with Rattus norvegicus [3] (subchronic, duration: 90 days, gavage, M/F, CD, Deaths + Clinical Observation: Hypoactivity Ataxia Salivation Labored respiration Rales Prostration Hypothermia Emaciation + Body Weight …) was 316 mg/kg-day; in the series with Rattus norvegicus [3] (subchronic, drinking water, Wistar) it was 2430 mg/kg-day. Besides, the NOEL with Rattus norvegicus [1] (subchronic, duration: 13 weeks, gavage, Nervous system: Ataxia + Nervous system: Hypoactivity) was 316 mg/kg-day; with Rattus norvegicus [2] (setting [6]) it was 316 mg/kg-day. Further, the LOAEL with Rattus norvegicus [2] (setting [6]) was 1000 mg/kg-day.

Regarding `[Al+3].[P-3]` [Aluminum phosphide], the NOAEL in the series on Rattus norvegicus [1] (chronic, duration: 2 years, diet, Unspecified: Altered clinical parameters + Whole body: Altered weight) was 0.43 mg/kg-day; in the series on Rattus norvegicus [2] (chronic, M/F, body weight and clinical parameters) it was 0.043 mg/kg-day.

As for `Brc1ccc(Br)cc1` [1,4-Dibromobenzene], the NOAEL in the series on Rattus norvegicus [1] (subchronic, duration: 45 days, gavage, Liver: Altered enzyme activities + Liver: Increased relative weight) worked out at 10 mg/kg-day; with Rattus norvegicus [2] (setting [7]) it was 10 mg/kg-day. For the same molecule, the LOAEL in the series with Rattus norvegicus [2] (setting [7]) is 20 mg/kg-day.

Take `CC(C)N1C(=O)c2ccccc2NS1(=O)=O` [Bentazone]: in the series with Canidae (setting [8]), the LOAEL came out at 13.1 mg/kg-day and the NOAEL worked out at 3.2 mg/kg-day.

Take `CCC/C(=N\OCC)C1=C(O)CC(CC(C)SCC)CC1=O` (centres undefined) [Sethoxydim]: the LEL with Canidae (setting [9]) was determined as 19.9 mg/kg-day; in the series with Canidae (setting [10]), 17.5 mg/kg-day. Moreover, the NOEL in the series on Canidae (setting [9]) came out at 9.41 mg/kg-day; in the series on Canidae (setting [10]), 8.86 mg/kg-day.

As for `Cc1cccc(O)c1` [m-Cresol], the NOAEL in the series on Rattus norvegicus [3] (short-term, duration: 28 days, diet, M/F, Fischer 344, Body Weight Changes: Mean body weight decrease, Body weight gain decrease + Food Consumption: decrease + Absolute Organ Weight: Brain …) came out at 3000 ppm; in the series on Rattus norvegicus [3] (subchronic, duration: 13 weeks, gavage, M/F, Sprague-Dawley, Deaths + Clinical Observation: Lethargy Tremors Hunched posture Rough hair coats + Body Weight Changes: Mean body weight decrease, Body …), 50 mg/kg-day; in the series on Rattus norvegicus [1] (subchronic, duration: 90 days, gavage, Nervous system: Neurotoxicity + Whole body: Decreased weight gain) it was 50 mg/kg-day; with Rattus norvegicus [2] (setting [11]), 50 mg/kg-day. For the same molecule, the LOAEL in the series on Rattus norvegicus [2] (setting [11]) was 150 mg/kg-day.

For the molecule `O=C1C=CC(=O)O1` [2,5-Furandione], the NOAEL is under 100 mg/kg-day in the series on Rattus norvegicus [3] (subchronic, duration: 90 days, diet, M/F, Sprague-Dawley, Urinalysis: Pro increase + Absolute Organ Weight: Kidney increase + Relative Organ Weight: Liver increase, Kidney increase + Necropsy: …); 10 mg/kg-day in the series with Rattus norvegicus [1] (chronic, duration: 2 years, diet, Kidney: Lesions); 10 mg/kg-day in the series on Rattus norvegicus [2] (chronic, M/F, no effects). This molecule also returned an LOAEL in the series with Rattus norvegicus [2] (reproduction developmental, M/F, renal lesions) of 20 mg/kg-day.

In the series on Canidae (setting [12]), `CCCC1COC(Cn2cncn2)(c2ccc(Cl)cc2Cl)O1` (centres undefined) [Propiconazole] gave an LEL of 6.25 mg/kg-day and an NOEL of 1.25 mg/kg-day. Also, in the series with Rattus norvegicus [4] (duration: 7 days, Wistar, Neither + effect on AGD in 2500mg/kg at birth / significant increase in testis wt at PND 50 in 500 and 2500 mg/kg but not at PND 92 or …), the NOEL came to 2500 mg/kg-day.

On to `COCC(=O)N(c1c(C)cccc1C)C(C)C(=O)OC` (centres undefined) [Metalaxyl], for which, in the series with Canidae (setting [13]), the LEL turned out to be 25 mg/kg-day and the NOEL is 6.25 mg/kg-day. The NOEL in the series on Rattus norvegicus [4] (duration: 10 days, Sprague-Dawley, inactive + Negative + Negative + neither + negative) worked out at 350 mg/kg-day.

For `CCOP(=S)(OCC)OP(=S)(OCC)OCC` [Sulfotepp], in the series with Rattus norvegicus [1] (subchronic, duration: 3 months, diet, Blood: Decreased cholinesterase activity + Erythrocytes: Decreased cholinesterase activity), the NOEL was determined as 0.5 mg/kg-day. In the series on Rattus norvegicus [2] (setting [14]), this molecule displayed an LEL of 1 mg/kg-day and an NOEL of 0.5 mg/kg-day.

In the case of `CCOP(=O)=O.CCOP(=O)=O.CCOP(=O)=O.[Al+3]` [Fosetyl aluminum], the NOEL in the series on Canidae (duration: 2 years, testicular degeneration) was determined as 250 mg/kg-day; in the series on Canidae (setting [15]), 250 mg/kg-day. Further, the LEL in the series with Canidae (setting [15]) amounted to 400 mg/kg-day.

As for `CCOC(=O)c1ccccc1S(=O)(=O)NC(=O)Nc1nc(Cl)cc(OC)n1` [Chlorimuron-ethyl], in the series with Canidae (setting [16]), the LEL worked out at 37.5 mg/kg-day and the NOEL came out at 6.25 mg/kg-day.

Consider `Nc1nc(N)nc(NC2CC2)n1` [Cyromazine], for which, in the series on Canidae (setting [17]), the LEL came out at 7.5 mg/kg-day and the NOEL came to 0.75 mg/kg-day.

The values above are taken from EPA's ToxValDB 9.5.
